SMILES strings stand for the structures. Like-named read-outs stand apart in the source and are kept apart here.

The subject of the assay is KM12 cells. The assay is described as follows: KM12 cell viability (CellTiter-Glo). The class given is cell-based. The conditions noted are these: Homo sapiens, 72 h, KM12 cell viability, CellTiter-Glo, read-out: IC50. Here is the method: KM12 or H358 cells were treated with 1000 nM CPD-053 following an 8-point 3-fold serial dilution for 3 days.
KM12 cells seeded in 96-well plates were treated with heterobifunctional compounds following a 11-point 3-fold serial dilution for 3 days.
KM12, H358, HEL, SU-DHL-1 and other cells were cultured at 37° C. with 5% CO2 in RPMI 1640 Medium supplemented with 10% fetal bovine serum. Cells were authenticated using the short tandem repeat (STR) assays. Mycoplasma test results were negative. Stable cell lines were established by lentivirus transduction, selected and maintained in medium containing 1 μg/mL puromycin (Beyotime Biotechnology).
Cells were seeded at a density of 5000 cells per well in 96-well assay plates and treated with test compounds following a 12-point 2-fold serial dilution or a 8-point 3-fold dilution, or 11-point 3-fold serial dilution. Three days later, cell viability was determined using the CellTiter-Glo assay kit (Promega) according to the manufacturer's instructions. The dose-response curves were determined and IC50 values were calculated using the GraphPad Prism software following a nonlinear regression (least squares fit) method.

[1] abbreviates: 11-point 3-fold serial dilution, 3 days.

Consider `Cc1ncsc1-c1ccc(CNC(=O)[C@@H]2C[C@@H](O)CN2C(=O)[C@@H](NC(=O)COCCOCCOCCOCCOCC(=O)N2CCN(c3cccc(-c4cnc5ccc(N6CCCC6c6cccc(F)c6)nn45)n3)CC2)C(C)(C)C)cc1` (stereo partly drawn) [CPD-003, (25,4R)-1-((S)-2-(tert-butyl)-20-(4-(6-(6-((R)-2-(3-Fluorophenyl)pyrrolidin-1-yl)imidazo[1,2-b]pyridazin-3-yl)pyridin-2-yl)piperazin-1-yl)-4,20-dioxo-6,9,12,15,18-pentaoxa-3-azaicosanoyl)-4-hydroxy-N-(4-(4-methylthiazol-5-yl)benzyl)pyrrolidine-2-carboxamide], for which the half-maximal inhibitory concentration (IC50) (as a rule, the concentration needed to halve the response being measured) (three days treatment) is more than 1000 nM.

Consider `Cc1ncsc1-c1ccc(CNC(=O)[C@@H]2C[C@@H](O)CN2C(=O)[C@@H](NC(=O)CCOCCOCCOCCOCCOCCC(=O)N2CCN(c3cccc(-c4cnc5ccc(N6CCCC6c6cccc(F)c6)nn45)n3)CC2)C(C)(C)C)cc1` (stereo partly drawn) [CPD-005, (25,4R)-1-((S)-2-(tert-butyl)-22˜ (4-(6-(6-((R)-2˜ (3-Fluorophenyl)pyrrolidin-1-yl)imidazo[1,2-b]pyridazin-3-yl)pyridin-2-yl)piperazin-1-yl)-4,22-dioxo-7,10,13,16,19-pentaoxa-3-azadocosanoyl)-4-hydroxy-N-(4-(4-methylthiazol-5-yl)benzyl)pyrrolidine-2-carboxamide], for which, for the setting “three days treatment”, the IC50 was more than 1000 nM.

As to `Cc1ncsc1-c1ccc(CNC(=O)[C@@H]2CC(O)CN2C(=O)[C@@H](NC(=O)CCOCCOCCOCCOCCOCCC(=O)N2CCN(c3ccc(C(=O)Nc4n[nH]c5ccc(Cc6cc(F)cc(F)c6)cc45)c(NC4CCOCC4)c3)CC2)C(C)(C)C)cc1` (stereo partly drawn) [CPD-043, (28,4R)-1-((S)-2-(tert-butyl)-22-(4-(4-((5-(3,5-Difluorobenzyl)-1H-indazol-3-yl)carbamoyl)-3-((tetrahydro-2H-pyran-4-yl)amino)phenyl)piperazin-1-yl)-4,22-dioxo-7,10,13,16,19-pentaoxa-3-azadocosanoyl)-4-hydroxy-N-(4-(4-methylthiazol-5-yl)benzyl)pyrrolidine-2-carboxamide], the IC50 (three days treatment) was more than 1000 nM.

Turning to `O=C1CCC(N2C(=O)c3ccc(NCC(=O)N4CCC(Nc5cccc(C(=O)Nc6cnn7ccc(N8CCC[C@@H]8c8cc(F)ccc8F)nc67)n5)CC4)cc3C2=O)C(=O)N1` (stereo partly drawn) [CPD-460, N-(5-((R)-2-(2,5-difluorophenyl)pyrrolidin-1-yl)pyrazolo[1,5-a]pyrimidin-3-yl)-6-((1-((2-(2,6-dioxopiperidin-3-yl)-1,3-dioxoisoindolin-5-yl)glycyl)piperidin-4-yl)amino)picolinamide], the 50% inhibitory concentration (IC50) under setting [1] is 32 nM.

In the case of `Cc1ncsc1-c1ccc(CNC(=O)[C@@H]2C[C@@H](O)CN2C(=O)[C@@H](NC(=O)CCC(=O)N2CCC(Nc3cccc(C(=O)Nc4cnn5ccc(N6CCC[C@@H]6c6cc(F)ccc6F)nc45)n3)CC2)C(C)(C)C)cc1` [CPD-461, N-(5-((R)-2-(2,5-difluorophenyl)pyrrolidin-1-yl)pyrazolo[1,2-a]pyrimidin-3-yl)-6-((1-(4-(((S)-1-((2S,4R)-4-hydroxy-2-((4-(4-methylthiazol-5-yl)benzyl)carbamoyl)pyrrolidin-1-yl)-3,3-dimethyl-1-oxobutan-2-yl)amino)-4-oxobutanoyl)piperidin-4-yl)amino)picolinamide], the IC50 under setting [1] was more than 1000 nM.

On to `Cc1ncsc1-c1ccc(CNC(=O)[C@@H]2C[C@@H](O)CN2C(=O)[C@@H](NC(=O)CCCCC(=O)N2CCC(Nc3cccc(C(=O)Nc4cnn5ccc(N6CCC[C@@H]6c6cc(F)ccc6F)nc45)n3)CC2)C(C)(C)C)cc1` [CPD-462, N-(5-((R)-2-(2,5-difluorophenyl)pyrrolidin-1-yl)pyrrazolo[1,5-a]pyrimidin-3-yl)-6-((1-(6-(((S)-1-((2S,4R)-4-hydroxy-2-((4-(4-methylthiazol-5-yl)benzyl)carbamoyl)pyrrolidin-1-yl)-3,3-dimethyl-1-oxobutan-2-yl)amino)-6-oxohexanoyl)piperidin-4-yl)amino)picolinamide], for which the half-inhibitory concentration (IC50) under setting [1] was more than 1000 nM.

Turning to `Cc1ncsc1-c1ccc(CNC(=O)[C@@H]2C[C@@H](O)CN2C(=O)[C@@H](NC(=O)CCCCCCC(=O)N2CCC(Nc3cccc(C(=O)Nc4cnn5ccc(N6CCC[C@@H]6c6cc(F)ccc6F)nc45)n3)CC2)C(C)(C)C)cc1` [CPD-463, N-(5-((R)-2-(2,5-difluorophenyl)pyrrolidin-1-yl)pyrazolo[1,5-a]pyrimidin-3-yl)-6-((1-(8-(((S)-1-((2S,4R)-4-hydroxy-2-((4-(4-methylthiazol-5-yl)benzyl)carbamoyl)pyrrolidin-1-yl)-3,3-dimethyl1-oxobutan-2-yl)amino)-8-oxooctanoyl)piperidin-4-yl)amino)picolinamide], the IC50 under setting [1] came out at 443 nM.

`Cc1ncsc1-c1ccc(CNC(=O)[C@@H]2C[C@@H](O)CN2C(=O)[C@@H](NC(=O)CCCCCCCCC(=O)N2CCC(Nc3cccc(C(=O)Nc4cnn5ccc(N6CCC[C@@H]6c6cc(F)ccc6F)nc45)n3)CC2)C(C)(C)C)cc1` [CPD-464, N-(5-((R)-2-(2,5-difluorophenyl)pyrrolidin-1-yl)pyrazolo[1,5-a]pyrimidin-3-yl)-6-((1-(10-(((S)-1-((2S,4R)-4-hydroxy-2-((4-(4-methylthiazol-5-yl)benzyl)carbamoyl)pyrrolidin-1-yl)-3,3-dimethyl-1-oxobutan-2-yl)amino)-10-oxodecanoyl)piperidin-4-yl)amino)picolinamide]: the half-inhibitory concentration (IC50) under setting [1] worked out at 87 nM.

Take `Cc1ncsc1-c1ccc(CNC(=O)[C@@H]2C[C@@H](O)CN2C(=O)[C@@H](NC(=O)CCOCCC(=O)N2CCC(Nc3cccc(C(=O)Nc4cnn5ccc(N6CCC[C@@H]6c6cc(F)ccc6F)nc45)n3)CC2)C(C)(C)C)cc1` [CPD-465, N-(5-((R)-2-(2,5-difluorophenyl)pyrrolidin-1-yl)pyrazolo[1,5-a]pyrimidin-3-yl)-6-((1-(3-(3-(((S)-1-((2S,4R)-4-hydroxy-2-((4-(4-methylthiazol-5-yl)benzyl)carbamoyl)pyrrolidin-1-yl)-3,3-dimethyl-1-oxobutan-2-yl)amino)-3-oxopropoxy)propanoyl)piperidin-4-yl)amino)picolinamide]: the concentration for half-maximal inhibition (IC50) under setting [1] worked out at 2020 nM.

Take `Cc1ncsc1-c1ccc(CNC(=O)[C@@H]2C[C@@H](O)CN2C(=O)[C@@H](NC(=O)CCOCCOCCC(=O)N2CCC(Nc3cccc(C(=O)Nc4cnn5ccc(N6CCC[C@@H]6c6cc(F)ccc6F)nc45)n3)CC2)C(C)(C)C)cc1` [CPD-466]: the IC50 under setting [1] stood at 253 nM.

Take `Cc1ncsc1-c1ccc(CNC(=O)[C@@H]2C[C@@H](O)CN2C(=O)[C@@H](NC(=O)CCOCCOCCOCCC(=O)N2CCC(Nc3cccc(C(=O)Nc4cnn5ccc(N6CCC[C@@H]6c6cc(F)ccc6F)nc45)n3)CC2)C(C)(C)C)cc1` [CPD-467, N-(5-((R)-2-(2,5-difluorophenyl)pyrrolidin-1-yl)pyrazolo[1,5-a]pyrimidin-3-yl)-6-((1-((S)-15-((2S,4R)-4-hydroxy-2-((4-(4-methylthiazol-5-yl)benzyl)carbamoyl)pyrrolidine-1-carbonyl)-16,16-dimethyl-13-oxo-4,7,10-trioxa-14-azaheptadecanoyl)piperidin-4-yl)amino)picolinamide]: the 50% inhibitory concentration (IC50) under setting [1] amounted to 343 nM.

Turning to `Cc1ncsc1-c1ccc(CNC(=O)[C@@H]2C[C@@H](O)CN2C(=O)[C@@H](NC(=O)CCOCCOCCOCCOCCC(=O)N2CCC(Nc3cccc(C(=O)Nc4cnn5ccc(N6CCC[C@@H]6c6cc(F)ccc6F)nc45)n3)CC2)C(C)(C)C)cc1` [CPD-468, N-(5-((R)-2-(2,5-difluorophenyl)pyrrolidin-1-yl)pyrazolo[1,5-a]pyrimidin-3-yl)-6-((1-((S)-18-((2S,4R)-4-hydroxy-2-((4-(4-methylthiazol-5-yl)benzyl)carbamoyl)pyrrolidine-1-carbonyl)-19,19-dimethyl-16-oxo-4,7,10,13-tetraoxa-17-azaicosanoyl)piperidin-4-yl)amino)picolinamide], the IC50 under setting [1] was more than 1000 nM.

In the case of `Cc1ncsc1-c1ccc(CNC(=O)[C@@H]2C[C@@H](O)CN2C(=O)[C@@H](NC(=O)CCOCCOCCOCCOCCOCCC(=O)N2CCC(Nc3cccc(C(=O)Nc4cnn5ccc(N6CCC[C@@H]6c6cc(F)ccc6F)nc45)n3)CC2)C(C)(C)C)cc1` [CPD-469, N-(5-((R)-2-(2,5-difluorophenyl)pyrrolidin-1-yl)pyrazolo[1,5-a]pyrimidin-3-yl)-6-((1-((S)-21-((2S,4R)-4-hydroxy-2-((4-(4-methylthiazol-5-yl)benzyl)carbamoyl)pyrrolidine-1-carbonyl)-22,22-dimethyl-19-oxo-4,7,10,13,16-pentaoxa-20-azatricosanoyl)piperidin-4-yl)amino)picolinamide], the IC50 under setting [1] is more than 1000 nM.

As for `NC(=O)C1CCN(c2cc(CN3CCN(C(=O)CCOCCOCCNc4cccc5c4C(=O)N(C4CCC(=O)NC4=O)C5=O)CC3)ccc2NC(=O)c2coc(N3CCOCC3)n2)CC1` (stereo not drawn) [CPD-486, N-(2-(4-carbamoylpiperidin-1-yl)-4-((4-(3-(2-(2-((2-(2,6-dioxopiperidin-3-yl)-1,3-dioxoisoindolin-4-yl)amino)ethoxy)ethoxy)propanoyl)piperazin-1-yl)methyl)phenyl)-2-morpholinooxazole-4-carboxamide], under setting [1], the IC50 is 230 nM.

On to `NC(=O)C1CCN(c2cc(CN3CCN(C(=O)CCOCCOCCOCCOCCNc4cccc5c4C(=O)N(C4CCC(=O)NC4=O)C5=O)CC3)ccc2NC(=O)c2coc(N3CCOCC3)n2)CC1` (stereo not drawn) [CPD-488, N-(2-(4-carbamoylpiperidin-1-yl)-4-((4-(1-((2-(2,6-dioxopiperidin-3-yl)-1,3-dioxoisoindolin-4-yl)amino)-3,6,9,12-tetraoxapentadecan-15-oyl)piperazin-1-yl)methyl)phenyl)-2-morpholinooxazole-4-carboxamide], for which the concentration for half-maximal inhibition (IC50) under setting [1] turned out to be 147 nM.
